Measured values published in US11046660B2, “Compounds and their use as PDE4 activators” (MIRONID LIMITED, priority 2016, dated 2021).

Columns and labels:
full-length human PDE4B2 = molecular target: T1, full-length human PDE4B2 (Homo sapiens, UniProt Q07343); assay: PDE4B2 short form enzyme activation radio-assay (Experiment 1, Protocol A or B); type: biochemical; details: 30 μM, mean % increase in counts over basal activity
T1 construct: and the full length human PDE4B2 short isoform; made in house; cytosol fraction of cell lysate
T1 sequence (Q07343 1-564 isoform Q07343-2): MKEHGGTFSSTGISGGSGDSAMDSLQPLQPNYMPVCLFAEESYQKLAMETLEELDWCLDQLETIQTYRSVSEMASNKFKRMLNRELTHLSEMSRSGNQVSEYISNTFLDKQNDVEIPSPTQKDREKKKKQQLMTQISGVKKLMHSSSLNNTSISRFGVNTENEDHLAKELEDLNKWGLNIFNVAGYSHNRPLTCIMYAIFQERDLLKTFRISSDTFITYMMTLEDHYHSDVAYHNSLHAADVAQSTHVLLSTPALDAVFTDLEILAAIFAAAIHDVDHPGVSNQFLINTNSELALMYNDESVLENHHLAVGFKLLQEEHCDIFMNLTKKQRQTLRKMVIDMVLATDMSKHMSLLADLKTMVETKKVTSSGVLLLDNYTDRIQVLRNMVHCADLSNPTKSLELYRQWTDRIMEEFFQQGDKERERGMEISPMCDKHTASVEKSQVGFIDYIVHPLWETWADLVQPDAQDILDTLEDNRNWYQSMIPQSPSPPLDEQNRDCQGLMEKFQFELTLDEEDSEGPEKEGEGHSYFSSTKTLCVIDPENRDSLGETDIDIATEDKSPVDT
Source text: (§1) Experiment 1: Identification of PDE4 Long Form Activators of the Present Invention Using Full-Length Human PDE4 Isoforms PDE4D5, PDE4A4, PDE4B1 and PDE4B2
(§2) HEK 293 cells were transfected with pDEST™ PDE4 expression vectors using Lipofectamine LTX/Plus reagent (Invitrogen) as outlined by the manufacturer and clonal isolates expanded to obtain cell lines that stably expressed the full-length human PDE4D5, PDE4A4 and PDE4B1 long isoforms and the full length human PDE4B2 short isoform. These were called the HEK-PDE4D5, HEK-PDE4A4, HEK-PDE4B1 and HEK-PDE4B2 cell lines, respectively.
(§3) HEK-PDE4D5 cells were seeded out in 100 mm plates and incubated at 37° C. in an atmosphere of 5% CO2, 95% air. Cell lysates were prepared using KHEM buffer [50 mM KCl, 10 mM EGTA, 50 mM HEPES (pH 7.2), 1.92 mM MgCl2].
(§4) To prepare the cell lysates, the 100 mm plates containing the cells were placed on ice and washed with ice-cold PBS (phosphate buffered saline, pH 7.4). KHEM buffer (500 μl) was added to the cells. Cells were then scraped off the plate and triturated using a needle (BD Microlance™ 0.8, 40 mm). The lysed cells were then centrifuged at 2000 rpm for 10 minutes to remove cell debris and the supernatant (cell lysate containing recombinant PDE4D5) was transferred to a fresh tube and kept on ice.
(§5) The cell lysate containing recombinant PDE4D5 was transferred into a centrifuge tube and placed into an ultracentrifuge (BECKMAN COULTER) and spun at high speed (100,000 g) for 30 minutes at 4° C. The cytosol fraction was then collected and its protein amount determined using a BCA protein assay.
(§6) PDE assays were performed using a final concentration of 10 mM Tris/5 mM MgCl2 and 1 μM [^3H]-cAMP (Perkin Elmer) plus PDE4D5 cell lysate cytosol fraction, containing over-expressed PDE4D5, with and without test compound. Incubations were performed at 30° C. for 5 minutes. The samples were then placed in a boiling water bath for 2 minutes to denature the PDE enzyme, and returned to ice. Samples were allowed to cool for 10 min after which snake venom 5′-nucleotidase (25 μl, 1 mg/ml; Sigma) was added. The tubes were vortexed and incubated in a water bath at 30° C. for 10 minutes, to attain conversion of [^3H]-5′-AMP to [^3H]-adenosine, and then placed on ice. Dowex ion exchange resin (Sigma) prepared as a 1:1 Dowex: water stock was thoroughly re-suspended and diluted 2:1 with ethanol. The resulting Dowex suspension (0.4 ml) was added to each tube. Tubes were vortexed to mix and then incubated on ice for at least 15 minutes before a final vortex. The Dowex resin was pelleted by centrifugation at 13,000 g at 4° C. for 3 minutes and 150 μl of the supernatant was removed to an Eppendorf tube containing 1 ml of ScintiSafe3 scintillation fluid (Fisher). Tubes were vortexed thoroughly to mix and the recovered [^3H]-adenosine was quantified by measuring counts over 1 minute in a scintillation counter.
(§7) The % increase in counts in the presence of test compound at a particular concentration indicates the % increase in enzyme activity at that concentration.
(§8) PDE assays were performed in thin walled V-bottomed 96-well plates. The assays were performed at a final concentration of 10 mM Tris/5 mM MgCl2 plus PDE4D5 cell lysate cytosol fraction, containing over-expressed PDE4D5, with and without test compound. The lysate/compound mix were incubated together for 15 min at room temperature on an orbital shaker prior to addition of [^3H] cAMP (final concentration 1 μM [^3H] cAMP; Perkin Elmer) to a final volume of 50 μl per reaction. The reactions were then incubated for 10 minutes at 30° C., terminated by heating for 2 min at 95° C. and allowed to cool. Snake venom (12.5 μl of 1 mg/ml; Crotalus atrox, Sigma) was then added and the plates were agitated and incubated for a further 15 minutes at 30° C. […]

full-length human PDE4D5 = molecular target: T2, full-length human PDE4D5 (Homo sapiens, UniProt Q08499); assay: PDE4D5 long form enzyme activation radio-assay (Experiment 1, Protocol A or B); type: biochemical; details: 30 μM, mean % increase in counts over basal activity
T2 construct: stably expressed the full-length human PDE4D5, PDE4A4 and PDE4B1 long isoforms; made in house; cytosol fraction of cell lysate
T2 sequence (Q08499 1-745 isoform Q08499-6): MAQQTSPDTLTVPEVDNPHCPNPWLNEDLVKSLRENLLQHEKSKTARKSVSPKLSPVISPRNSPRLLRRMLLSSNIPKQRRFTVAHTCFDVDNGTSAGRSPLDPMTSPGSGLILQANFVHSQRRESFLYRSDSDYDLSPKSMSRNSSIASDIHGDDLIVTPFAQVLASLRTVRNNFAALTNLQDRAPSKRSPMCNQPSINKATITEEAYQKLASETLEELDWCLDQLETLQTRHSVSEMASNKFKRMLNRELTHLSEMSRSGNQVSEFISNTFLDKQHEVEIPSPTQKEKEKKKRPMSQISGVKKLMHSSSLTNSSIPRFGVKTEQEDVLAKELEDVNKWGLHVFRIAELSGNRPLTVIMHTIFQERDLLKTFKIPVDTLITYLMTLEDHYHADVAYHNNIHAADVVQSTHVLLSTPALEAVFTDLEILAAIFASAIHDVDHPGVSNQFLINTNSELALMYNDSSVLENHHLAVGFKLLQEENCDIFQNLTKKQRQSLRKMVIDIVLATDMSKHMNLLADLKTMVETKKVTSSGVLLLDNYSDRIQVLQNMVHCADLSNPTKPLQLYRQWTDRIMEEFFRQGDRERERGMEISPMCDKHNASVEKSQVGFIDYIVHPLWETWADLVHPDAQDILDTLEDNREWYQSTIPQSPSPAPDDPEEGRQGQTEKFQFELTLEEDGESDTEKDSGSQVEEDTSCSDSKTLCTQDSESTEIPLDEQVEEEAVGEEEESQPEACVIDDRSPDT
Source text: as §1, §2, §3, §4, §5, §6, §7, §8

MDCK cells [1] = assay: Inhibition of in vitro cyst formation in 3D MDCK culture, PGE2-stimulated (Experiment 3, Protocol D); type: cell-based, canine; details: 300 nM PGE2-stimulated, FIG. 3
Source text: In this study, the well-established three-dimensional (3D) MDCK cell model is used to investigate the effects of PDE4 long form activators on the formation of kidney cysts and evaluate their potential in the treatment of polycystic kidney diseases. 3D cysts are generated based on the method of Mao et al. (Mao, Z., Streets, A. J., Ong, A. C. M. Am. J. Physiol. Renal Physiol. 300(6): F1375-F1384, 2011), with some modifications.
Type 1 collagen (Invitrogen) is first prepared on ice by neutralising an acidic stock solution (3 mg/ml) with 17 mM NaOH and diluting it to 1 mg/ml with DMEM, supplemented with 2% (v/v) FBS, 2 mM L-glutamine, 1,000 U penicillin and 1,000 μg streptomycin (DMEM-2% FBS). […]
Phase-contrast images are obtained on the Motic microscope (×4 magnification). 8 images are taken per condition and the cyst diameter measured (up to 150 cyst measurements per well). Cyst spheroid volume is calculated using the formula 4/3πr^3 where r is the radius of the spheroid. A mean cyst volume is then calculated per well. The mean cyst volume and standard deviation between the duplicate wells is then calculated and expressed as a % Cyst Volume compared to the vehicle only (DMSO+300 nM PGE2) control wells.

MDCK cells [2] = assay: Reduction of intracellular cAMP levels in forskolin-stimulated MDCK cells (Experiment 2); type: cell-based, canine; details: compound 10 μM for 10 min prior to forskolin 10 μM for 2 min; FIG. 2
Procedure: MDCK cells were seeded at 100,000 cells per well, and left to adhere overnight. The cells were then treated with the test compound (10 μM) for 10 minutes, prior to stimulation with forskolin (10 μM, Sigma) for 2 minutes. Media was aspirated, and hydrochloric acid (0.1M) was added to lyse the cells. The cAMP assay (Enzo Life Sciences) was performed according to the manufacturer's instructions.

activation at 30 µM (full-length human PDE4B2; Protocol B) [%]	activation at 30 µM (full-length human PDE4D5; Protocol B) [%]	activation at 30 µM (full-length human PDE4B2; Protocol A) [%]	activation at 30 µM (full-length human PDE4D5; Protocol A) [%]	Structure (SMILES)	cyst formation in 3D culture of MDCK cells (in words) (MDCK cells [1])	intracellular cAMP levels in MDCK cells (in words) (MDCK cells [2])
-7.9	101			CNC(=O)c1nc(-c2ccc(Cl)c(F)c2)nn1CC(=O)NCc1ccc2[nH]ncc2c1 [Example 28, 3-(4-chloro-3-fluorophenyl)-1-({[(1H-indazol-5-yl)methyl]carbamoyl}methyl)-N-methyl-1H-1,2,4-triazole-5-carboxamide]	inhibition of cyst formation	
		19.5	105	COC(=O)c1nc(-c2ccc(Cl)c(F)c2)nn1CC(=O)NCc1cccc(F)c1 [Example 1, Methyl 3-(4-chloro-3-fluorophenyl)-1-{[(3-fluorobenzyl)carbamoyl]methyl}-1H-1,2,4-triazole-5-carboxylate]		reduction in intracellular cAMP levels
